# In PMC11727334, “A self-immolative Kdn-glycoside substrate enables high-throughput screening for inhibitors of Kdnases” (Glycobiology, 2024):
# Entries after “also recorded” stand apart in the source; their conditions may differ. Like-named read-outs stand apart in the source and are kept apart here.
# Columns and labels:
# [1] = biological target: Aspergillus terreus Kdnase (AtK) (Aspergillus terreus, UniProt Q0CMX0); assay: Inhibition assay of recombinant AtK using Kdn4MU as substrate; type: biochemical
# Sequence of Aspergillus terreus Kdnase (AtK) (Q0CMX0 entry or part of it): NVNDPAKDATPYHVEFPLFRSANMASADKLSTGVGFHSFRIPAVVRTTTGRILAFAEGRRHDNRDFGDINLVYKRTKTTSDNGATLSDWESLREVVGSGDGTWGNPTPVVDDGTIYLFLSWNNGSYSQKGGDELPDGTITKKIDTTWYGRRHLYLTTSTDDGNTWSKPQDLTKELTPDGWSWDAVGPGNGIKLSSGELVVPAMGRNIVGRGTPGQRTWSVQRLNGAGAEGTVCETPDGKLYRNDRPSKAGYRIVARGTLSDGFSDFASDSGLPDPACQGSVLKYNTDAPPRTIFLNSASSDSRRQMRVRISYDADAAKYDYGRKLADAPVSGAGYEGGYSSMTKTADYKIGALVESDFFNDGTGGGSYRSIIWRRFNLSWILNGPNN
# Description: (§1) We purchase fresh commercial material for compounds 13 and 14 and performed inhibition assays using recombinant AfK (Methods, Fig. S8, Supporting Information). We determined IC50 values in quadruplicate using 4MU-Kdn as the substrate ([Yeung et al. 2013]). […] We submitted both compounds to a pan-assay interference compounds (PAINS) filter, a compilation of chemical substructures known to show promiscuous biological activities ([Baell and Nissink 2018]). […] We performed standard inhibition assays as described earlier using inhibitor 13 and these recombinant enzymes. […] We also tested inhibitor 13 with the sialidase MvNA, the closest structural homologue to AfK, that is known to cleave a multitude of substrates including Kdn glycosides ([Telford et al. 2011]).
# (§2) Each 200 μM reaction mixture was incubated at rt for 2 min prior to the addition of purified sialidase. Inhibitor was added to the reaction mixture and allowed to incubate at rt between 0–60 min in 100 mM sodium acetate buffer pH 4.0 and 0.01% BSA prior to the addition of substrate. The kinetic parameters were determined from initial rate measurements using a substrate concentration of Km/4. The progress of the reaction was continuously monitored for 15 min using a fluorescence spectrophotometer (BioTek Neo 2) and excitation and emission wavelengths of 360 and 450 nm, respectively.
# [2] = biological target: T1, AfK (Aspergillus fumigatus, UniProt Q4WQS0); assay: Differential scanning fluorimetry (DSF) thermal shift assay, AfK; type: binding
# T1 construct: AfK was expressed and purified as described by Telford et al; made in house
# T1 sequence (Q4WQS0 21-406): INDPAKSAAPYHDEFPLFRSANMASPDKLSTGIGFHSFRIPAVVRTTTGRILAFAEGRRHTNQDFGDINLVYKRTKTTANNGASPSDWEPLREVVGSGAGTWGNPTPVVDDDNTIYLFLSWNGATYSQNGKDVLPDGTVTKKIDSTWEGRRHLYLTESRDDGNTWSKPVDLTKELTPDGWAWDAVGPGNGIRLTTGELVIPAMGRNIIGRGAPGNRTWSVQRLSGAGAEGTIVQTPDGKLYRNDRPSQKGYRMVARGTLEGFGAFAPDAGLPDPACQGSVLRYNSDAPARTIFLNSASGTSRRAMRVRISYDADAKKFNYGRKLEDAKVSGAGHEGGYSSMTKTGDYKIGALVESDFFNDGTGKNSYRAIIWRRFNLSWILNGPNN
# Description: (§3) We next used a separate biophysical technique, differential scanning fluorimetry (DSF), to confirm that these compound bind to the various Kdnases. Specifically, we measured protein melting temperatures in the presence of Kdn2en (2) and candidate ligands 13 and 17 (Fig. 3D). […] We repeated this DSF assay on AtK and TrK and we observed similar trends in thermal shifts (Fig. S14 and Tables S2,S3 and S4, Supporting Information). […] Accordingly, further follow up on this compound would need to be pursued with an awareness of this possibility.
# (§4) Table S3. Differential scanning fluorometry-based (DSF) assay for inhibitors 2, 13, and 17 binding to Af, At, Tr and MvNA. Protein thermal shifts(ΔTm) using DMSO (2.5%), and inhibitors 2, 13, and 17 at 500 µM against the Kdnase of Af, At, Tr and MvNA. Assay done using 5–10 µM enzyme and 100 mM pH 4.0 NaOAc (pH 5.5 MvNA). A temperature range of 25°C to 95°C was used with a gradient of 0.05°C/sec. […]
# (§5) Table S4. Thermal shifts (ΔTm) for stabilization of AfK, AtK, TrK and MvNA on inhibitor binding relative to the DMSO (2.5%) control. […]
# [3] = biological target: neuraminidase MvNA (Micromonospora viridifaciens, UniProt Q02834); assay: Inhibition assay of the sialidase MvNA using Kdn4MU as substrate; type: biochemical
# Sequence of neuraminidase MvNA (Q02834 38-647): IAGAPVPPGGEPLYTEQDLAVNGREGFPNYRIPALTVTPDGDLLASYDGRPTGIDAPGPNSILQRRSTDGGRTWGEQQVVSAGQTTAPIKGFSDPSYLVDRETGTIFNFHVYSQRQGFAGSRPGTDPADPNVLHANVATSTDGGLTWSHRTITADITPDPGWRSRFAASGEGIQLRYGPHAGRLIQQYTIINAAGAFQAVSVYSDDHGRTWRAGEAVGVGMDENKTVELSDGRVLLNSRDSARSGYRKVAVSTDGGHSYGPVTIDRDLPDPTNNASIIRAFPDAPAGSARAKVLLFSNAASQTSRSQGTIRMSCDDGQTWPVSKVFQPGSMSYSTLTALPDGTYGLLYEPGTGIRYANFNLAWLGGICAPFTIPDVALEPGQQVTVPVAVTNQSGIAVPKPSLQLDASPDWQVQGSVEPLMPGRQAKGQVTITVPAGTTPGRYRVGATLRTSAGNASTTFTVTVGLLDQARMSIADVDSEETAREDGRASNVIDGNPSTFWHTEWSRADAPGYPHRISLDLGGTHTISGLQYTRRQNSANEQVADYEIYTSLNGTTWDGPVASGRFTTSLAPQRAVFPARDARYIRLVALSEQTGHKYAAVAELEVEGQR
# Description: as §1
# as §2, with “Inhibitor was added to the reaction mixture and allowed to incubate at rt between 0–60 min in 100 mM sodium acetate buffer pH 4.0 and 0.01% BSA prior to the addition of substrate.” left out
# [4] = biological target: Trichophyton rubrum Kdnase (TrK) (Trichophyton rubrum, UniProt A0A178EUH2); assay: Inhibition assay of recombinant TrK using Kdn4MU as substrate; type: biochemical
# Sequence of Trichophyton rubrum Kdnase (TrK) (A0A178EUH2 entry or part of it): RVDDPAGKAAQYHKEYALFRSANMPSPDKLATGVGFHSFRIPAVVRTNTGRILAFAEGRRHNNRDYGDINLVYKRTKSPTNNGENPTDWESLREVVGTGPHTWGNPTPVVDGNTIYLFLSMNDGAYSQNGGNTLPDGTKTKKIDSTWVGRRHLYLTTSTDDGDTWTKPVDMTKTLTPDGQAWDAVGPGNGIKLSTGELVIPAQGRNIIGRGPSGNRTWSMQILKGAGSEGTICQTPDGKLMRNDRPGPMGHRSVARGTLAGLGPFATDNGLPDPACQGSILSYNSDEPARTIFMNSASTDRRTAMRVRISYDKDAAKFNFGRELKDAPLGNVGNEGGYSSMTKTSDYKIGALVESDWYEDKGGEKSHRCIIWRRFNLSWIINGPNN
# Description: as §1, §2
# [5] = system: TrK; assay: Differential scanning fluorimetry (DSF) thermal shift assay, TrK; type: binding, Trichophyton rubrum
# Description: as §3, §4, §5
# [6] = biological target: T2, Kdnase produced by A. fumigatus (AfK) (Aspergillus fumigatus, UniProt Q4WQS0); assay: Inhibition assay of recombinant AfK using 4MU-Kdn as substrate; type: biochemical
# T2 construct: AfK was expressed and purified as described by Telford et al; made in house
# T2 sequence (Q4WQS0 21-406): as the sequence (Q4WQS0 21-406) above
# Description: as §1, §2
# [7] = system: AtK; assay: Differential scanning fluorimetry (DSF) thermal shift assay, AtK; type: binding, Aspergillus terreus; settings: inhibitor 500 µM
# Description: as §3, §4, §5
# [8] = biological target: T1, AfK; assay: HTS assay of AfK activity using Kdn glycoside 4 (384-well, stop solution); type: biochemical
# Method: We next miniaturized our assay for use in a 384-well microplate format by optimizing the quantity of detergent and checking for fluorescent signal stability (Figs 2A,S6 and S7 Supporting Information). In each well, we added a solution of buffer containing AfK (50 nM) and then added a library compound using a pin tool. We included both detergent (0.2% (v/v) Tween-20) and BSA (0.01% BSA) to reduce false positives arising from aggregation prone compounds ([Feng et al. 2007]). We then equilibrated the mixture prior to the addition of substrate 4, and the resultant solution was incubated for 1 h after which stop solution was added. To ensure cyclization was complete, the mixture was allowed to react for 1 h prior to measuring the fluorescence. Candidate hits identified in this primary screen were cherry picked and delivered into a gold plate that was used to confirm hits.
# To each well in a 384-well microplate, enzyme (20 μL of a 50 nM stock solution) in reaction buffer (100 mM NaOAc, 0.2% Tween-20, 0.01% BSA, pH 4) was added to a library compound (200 nL of 20 μM TargetMol, 10 μM Chembridge), and this mixture was incubated at rt for 1 h. Then, substrate 4 (20 μL of a 50 μM stock) was added and the resultant mixture was incubated at rt for an additional 1 hr. Following addition of stop solution (40 μL of 1 M aqueous K2CO3, pH ≈ 12) to the mixture the plate was incubated for 1 h at rt. Next, the fluorescence for each well was measured (BioTek Neo 2) using an excitation and an emission wavelength of 360 and 450 nm, respectively. The collected data was analyzed using Prism 7.0. We used the known mechanism-based inactivator 2,3-diF-Kdn (3) as the positive control ([Watts et al. 2006]; [Khazaei et al. 2015]). That is, using 2,3-diFKdn at a concentration of 30 μM, following a 10 min incubation, gives a background signal that equates to >90% inhibition.
# [9] = biological target: MvNA (Micromonospora viridifaciens, UniProt Q02834); assay: Differential scanning fluorimetry (DSF) thermal shift assay, MvNA; type: binding; settings: inhibitor 500 µM
# Sequence of MvNA (Q02834 38-647): as the sequence (Q02834 38-647) above
# Method: as §4, §5
# [10] = biological target: T1, AfK; settings: Table S1; ref Telford et al., J Biol Chem, 2011, 10783; cited from earlier work
# [11] = system: A. fumigatus; design: method as in Nesbitt et al. 2018; settings: ref Nesbitt et al. 2018, cited from earlier work
# [12] = inhibitor 500 µM, 100 mM pH 4.0 NaOAc, 5–10 µM enzyme
compound,measurement,setting,value
"O=C(/C=C/c1ccc(O)c2c1[C@H](C(=O)O)[C@@H](c1ccc(O)c(O)c1)O2)O[C@H](Cc1ccc(O)c(O)c1)C(=O)O [compound 13, lithospermic acid]",IC50,[1],14.4 ± 0.07 µM
same,mode of inhibition,[1]; AtK,competitively inhibited
same,Hill coefficient,"[1]; Table 1, 37 °C, pH 4.0",−1.36
same,"effect on thermal stability of the folded enzyme (DSF, in words)",[2]; AfK,stabilizes neither AfK; also recorded: no effect on the stability of AfK
same,"protein melting temperature (DSF, Table S3)",[2]; [12],51.4 ± 0.1 °C
same,ΔTm at 500 µM,[2]; read-out: Thermal shift (ΔTm) relative to DMSO (2.5%) control,-0.1 °C
same,IC50,[3],347 ± 2 µM
same,Hill coefficient,"[3]; Table 1, 37 °C, pH 5.5",−0.90
same,IC50,[4],11.8 ± 0.1 µM
same,Hill coefficient,"[4]; Table 1, 37 °C, pH 4.0",−0.80
same,mode of inhibition,[4]; TrK,competitively inhibited
same,Thermal shift (ΔTm) relative to DMSO (2.5%) control,"[5]; Table S4, inhibitor 500 µM",+13.7 ± 0.1 °C
same,"effect on thermal stability of the folded enzyme (DSF, in words)",[5]; TrK,does stabilize TrK
same,"protein melting temperature (DSF, Table S3)",[5]; [12],48.4 ± 0.1 °C
same,mode of inhibition (Lineweaver-Burk plots),[6]; AfK,competitive inhibitors
same,fold lower IC50 value than that reported for Kdn2en 2,"[6]; AfK, Kdn2en value from Yeung et al. 2013",24 fold
same,IC50,"[6]; Table 1, 37 °C, Kdn4MU substrate, NaOAc 100 mM pH 4.0, 0.01% BSA, read-out: IC50",22.8 ± 1 µM
same,Hill coefficient,"[6]; Table 1, 37 °C, pH 4.0",−1.32
same,Ki,"[6]; Table 1, calculated Ki = IC50/(([S]/Km) + 1), read-out: Ki",18.7 µM
same,Hill,"[6]; Table S2, values from this work",–1.32
same,time-dependent inhibition,"[6]; time points 0, 10 and 60 mins, 50 µM Kdn4MU 1 substrate",no time dependent changes in calculated IC50 values
same,Thermal shift (ΔTm) relative to DMSO (2.5%) control,[7]; Table S4,–0.8 ± 0.1 °C
same,"protein melting temperature (DSF, Table S3)","[7]; 100 mM pH 4.0 NaOAc, 5–10 µM enzyme",51.1 ± 0.1 °C
same,inhibitory activity verified in repeat assay of HTS hits,[8]; TargetMol library pilot screen,inhibit AfK
same,ΔTm at 500 µM,"[9]; Table S4, read-out: Thermal shift (ΔTm) relative to DMSO (2.5%) control",1 °C
same,"protein melting temperature (DSF, Table S3)","[9]; pH 5.5, 5–10 µM enzyme",54.9 ± 0.4 °C
"Cc1cc(=O)oc2cc(O[C@]3(C(=O)O)C[C@H](O)[C@@H](O)[C@H]([C@H](O)[C@H](O)CO)O3)ccc12 [compound 1, 4-methylumbelliferyl 3-deoxy-D-glycero-D-galacto-non-2-ulopyranosidonic acid]",Km,[10],230 ± 20 µM
same,kcat,[10],41 ± 4 s–1
C[C@@H]1[C@H](O)[C@@H](C)/C=C/C=C/C=C/C=C/C=C/C=C/C=C/[C@H](O[C@@H]2O[C@H](C)[C@@H](O)[C@H](N)[C@@H]2O)C[C@@H]2O[C@](O)(C[C@@H](O)C[C@@H](O)[C@H](O)CC[C@@H](O)C[C@@H](O)CC(=O)O[C@H]1C)C[C@H](O)[C@H]2C(=O)O [Amphotericin B],survival outcome,[11]; immunocompromised mice infected with AfK KO spores,improved survival rate
same,survival outcome,[11]; immunocompromised mice infected with wild-type (WT) A. fumigatus spores,complete mortality
"O=C(O)[C@]1(F)O[C@@H]([C@H](O)[C@H](O)CO)[C@H](O)[C@@H](O)[C@H]1F [compound 3, 2,3-diF-α-Kdn]",inhibition at 30 µM,"[8]; 30 μM, 10 min incubation",> 90%
same,activity at 30 µM,"[8]; 30 μM, reacted with AfK for 10 min, read-out: fluorescent signal relative to the uninhibited sample",< 10%
same,Hill Slope,[8]; following incubation (10 min),-1.2
same,IC50,"[8]; following incubation (10 min), read-out: apparent IC50",3.1 µM
